Patent US9790201B2, “Piperidine and azepine derivatives as prokineticin receptor modulators” (TAKEDA PHARMACEUTICAL COMPANY LIMITED, priority 2013, dated 2017)
pIC50: −log10 of the molar value.

target: human PKR1 receptors (Homo sapiens (Human), UniProt Q8TCW9); experiment: PKR1 antagonist assay: block of PK1-mediated intracellular calcium release (FLIPR Tetra); assay type: cell-based; conditions: RBL2H3 cells expressing human PKR1; stimulation with PK1 at EC80; calcium fluorescence
Description: Prokineticin receptor 1 (PKR1) antagonists may be functionally assessed by measurement of change in intracellular calcium levels induced by Gq mediated increase in inositol triphosphate (IP3) levels. The ability of a compound to block the intracellular release of calcium mediated by PK1 in RBL2H3 cells expressing human PKR1 receptors is determined as a measure of the compound's antagonist activity in vitro.
Approximately 10,000 cells per assay well are seeded in normal culture medium in a 384 well plate (Corning). Twenty-four hours after seeding, the cells are loaded with a calcium sensitive fluorescent dye by replacing the culture medium with assay buffer (1× Hanks buffered saline, 25 mM HEPES, 0.1% w/v fatty acid free BSA (bovine serum albumin), pH 7.4) containing 1 mM probenecid and 1× Calcium 5 Reagent (Molecular Devices). Cells are incubated at 37° C. for 1 hour to allow for dye uptake.
To test for antagonist activity, test compounds at a final concentration range between 0.32 nM-10 μM (diluted in assay buffer) are added to the assay wells and allowed to incubate for 10 minutes prior to stimulation with PK1. After incubation with test compounds the assay plate is placed in a FLIPR Tetra (Molecular Devices) and PK1 (diluted in assay buffer) is added at the determined EC80 concentration (final). Ligand-dependent changes in intracellular calcium levels are determined by measuring changes in fluorescence of the dye at […] following excitation at 485 nm.

Sequence of human PKR1 receptors (Q8TCW9 whole entry): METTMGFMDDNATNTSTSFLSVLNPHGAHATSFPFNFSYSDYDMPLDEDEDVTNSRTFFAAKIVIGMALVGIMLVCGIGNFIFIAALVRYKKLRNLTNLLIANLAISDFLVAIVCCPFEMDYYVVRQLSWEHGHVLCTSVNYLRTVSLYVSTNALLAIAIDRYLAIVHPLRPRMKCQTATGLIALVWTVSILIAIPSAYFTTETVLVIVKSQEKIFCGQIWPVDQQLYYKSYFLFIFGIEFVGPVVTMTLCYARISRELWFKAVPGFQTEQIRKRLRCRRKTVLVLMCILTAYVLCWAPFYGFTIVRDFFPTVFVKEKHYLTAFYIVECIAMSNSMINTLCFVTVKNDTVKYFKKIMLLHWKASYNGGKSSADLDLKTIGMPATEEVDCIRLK

SMILES | pIC50
COc1ccc(C2CCCN(C(=O)c3cnnc(N(C)C)c3)C2)c(C)c1 (stereo not shown) [Example 80, 5-{[3-(4-Methoxy-2-methylphenyl)piperidin-1-yl]carbonyl}-N,N-dimethylpyridazin-3-amine] | 6.80
CNc1cc(C(=O)N2CCCC(c3ccc(OC)cc3C(F)(F)F)C2)cnn1 (stereo not shown) [Example 81, 5-({3-[4-Methoxy-2-(trifluoromethyl)phenyl]piperidin-1-yl}carbonyl)-N-methylpyridazin-3-amine] | 6.89
COc1ccc(C2CCCN(C(=O)c3cnnc(N(C)C)c3)C2)c(C(F)(F)F)c1 (stereo not shown) [Example 82, 5-({3-[4-Methoxy-2-(trifluoromethyl)phenyl]piperidin-1-yl}carbonyl)-N,N-dimethylpyridazin-3-amine] | 6.68
CCOc1cc(Cl)ccc1C1CCCN(C(=O)c2cnnc(NC)c2)C1 (stereo not shown) [Example 83, 5-{[3-(4-Chloro-2-ethoxyphenyl)piperidin-1-yl]carbonyl}-N-methylpyridazin-3-amine] | 6.77
CCOc1cc(Cl)ccc1C1CCCN(C(=O)c2cnnc(N(C)C)c2)C1 (stereo not shown) [Example 84, 5-{[3-(4-Chloro-2-ethoxyphenyl)piperidin-1-yl]carbonyl}-N,N-dimethylpyridazin-3-amine] | 7.05
Cc1cc(C(=O)N2CCCC(c3ccc(Cl)cc3C)C2)cnn1 (stereo not shown) [Example 85, 5-{[3-(4-Chloro-2-methylphenyl)piperidin-1-yl]carbonyl}-3-methylpyridazine] | 5.94
Cc1cc(Cl)ccc1C1CCCN(C(=O)c2cn(C)nc2C)C1 (stereo not shown) [Example 87, 3-(4-Chloro-2-methylphenyl)-1-[(1,3-dimethyl-1H-pyrazol-4-yl)carbonyl]piperidine] | 6.70
Cc1nn(C)cc1C(=O)N1CCCC(c2ccc(Cl)cc2)C1 (stereo not shown) [Example 88, 3-(4-Chlorophenyl)-1-[(1,3-dimethyl-1H-pyrazol-4-yl)carbonyl]piperidine] | 5.74
Cn1cc(C(=O)N2CCCC(c3ccc(Cl)cc3)C2)cn1 (stereo not shown) [Example 89, 3-(4-Chlorophenyl)-1-[(1-methyl-1H-pyrazol-4-yl)carbonyl]piperidine] | 5.89
CCn1cc(C(=O)N2CCCC(c3ccc(Cl)cc3)C2)cn1 (stereo not shown) [Example 90, 3-(4-Chlorophenyl)-1-[(1-ethyl-1H-pyrazol-4-yl)carbonyl]piperidine] | 6.18
CC(C)n1cc(C(=O)N2CCCC(c3ccc(Cl)cc3)C2)cn1 (stereo not shown) [Example 91, 3-(4-Chlorophenyl)-1-{[1-(propan-2-yl)-1H-pyrazol-4-yl]carbonyl}piperidine] | 6.02
CCn1cc(C(=O)N2CCCC(c3ccc(Cl)cc3C)C2)cn1 (stereo not shown) [Example 92, 3-(4-Chloro-2-methylphenyl)-1-[(1-ethyl-1H-pyrazol-4-yl)carbonyl]piperidine] | 6.96
Cc1cc(Cl)ccc1C1CCCN(C(=O)c2cnn(C(C)C)c2)C1 (stereo not shown) [Example 93, 3-(4-Chloro-2-methylphenyl)-1-{[1-(propan-2-yl)-1H-pyrazol-4-yl]carbonyl}piperidine] | 6.74
Cc1cc(Cl)ccc1C1CCCN(C(=O)c2cnn(C)c2)C1 (stereo not shown) [Example 94, 3-(4-Chloro-2-methylphenyl)-1-[(1-methyl-1H-pyrazol-4-yl)carbonyl]piperidine] | 6.77
Cc1cc(Cl)ccc1C1CCCN(C(=O)c2cnn(C)c2N)C1 (stereo not shown) [Example 95, 4-{[3-(4-Chloro-2-methylphenyl)piperidin-1-yl]carbonyl}-1-methyl-1H-pyrazol-5-amine] | 6.82
O=C(c1cn[nH]c1)N1CCCC(c2ccc(Cl)cc2C(F)(F)F)C1 (stereo not shown) [Example 96, 3-[4-Chloro-2-(trifluoromethyl)phenyl]-1-[(1H-pyrazol-4-yl)carbonyl]piperidine] | 5.61
Cn1cc(C(=O)N2CCCC(c3ccc(Cl)cc3C(F)(F)F)C2)cn1 (stereo not shown) [Example 97, 3-[4-Chloro-2-(trifluoromethyl)phenyl]-1-[(1-methyl-1H-pyrazol-4-yl)carbonyl]piperidine] | 7.00
CCn1cc(C(=O)N2CCCC(c3ccc(Cl)cc3C(F)(F)F)C2)cn1 (stereo not shown) [Example 98, 3-[4-Chloro-2-(trifluoromethyl)phenyl]-1-[(1-ethyl-1H-pyrazol-4-yl)carbonyl]piperidine] | 6.77
CC(C)n1cc(C(=O)N2CCCC(c3ccc(Cl)cc3C(F)(F)F)C2)cn1 (stereo not shown) [Example 99, 3-[4-Chloro-2-(trifluoromethyl)phenyl]-1-{[1-(propan-2-yl)-1H-pyrazol-4-yl]carbonyl}piperidine] | 6.48

Now from value to compound:

pIC50 | SMILES
6.27 | Cn1cc(C(=O)N2CCCC(c3ccc(Cl)cc3C(F)(F)F)C2)c(N)n1 (stereo not shown) [Example 100, 4-({3-[4-Chloro-2-(trifluoromethyl)phenyl]piperidin-1-yl}carbonyl)-1-methyl-1H-pyrazol-3-amine]
5.99 | COc1ccc(C2CCCN(C(=O)c3cn(C)nc3C)C2)c(C)c1 (stereo not shown) [Example 101, 1-[(1,3-Dimethyl-1H-pyrazol-4-yl)carbonyl]-3-(4-methoxy-2-methylphenyl)piperidine]
5.81 | COc1ccc(C2CCCN(C(=O)c3cn(C)nc3N)C2)c(C)c1 (stereo not shown) [Example 102, 4-{[3-(4-Methoxy-2-methylphenyl)piperidin-1-yl]carbonyl}-1-methyl-1H-pyrazol-3-amine]
6.31 | Cc1nn(C)cc1C(=O)N1CCCC(c2ccc(Cl)cc2C(F)(F)F)C1 (stereo not shown) [Example 103, 3-[4-Chloro-2-(trifluoromethyl)phenyl]-1-[(1,3-dimethyl-1H-pyrazol-4-yl)carbonyl]piperidine]
6.38 | CN(C)c1cc(C(=O)N2C=C(c3ccc(Cl)cc3)CCC2)ccn1 [Example 104, 4-{[5-(4-Chlorophenyl)-1,2,3,4-tetrahydropyridin-1-yl]carbonyl}-N,N-dimethylpyridin-2-amine]
6.57 | Cc1cc(Cl)ccc1C1=CN(C(=O)c2ccnc(N(C)C)c2)CCC1 [Example 105, 4-{[5-(4-Chloro-2-methylphenyl)-1,2,3,4-tetrahydropyridin-1-yl]carbonyl}-N,N-dimethylpyridin-2-amine]
5.91 | CN(C)c1cc(C(=O)N2C=C(c3ccc(Cl)cc3Cl)CCC2)ccn1 [Example 106, 4-{[5-(2,4-Dichlorophenyl)-1,2,3,4-tetrahydropyridin-1-yl]carbonyl}-N,N-dimethylpyridin-2-amine]
5.53 | CN(C)c1cc(C(=O)N2CCCCC(c3ccccc3)C2)ccn1 (stereo not shown) [Example 107, N,N-Dimethyl-4-[(3-phenylazepan-1-yl)carbonyl]pyridin-2-amine]
5.49 | CN(C)c1cc(C(=O)N2CCCCC(c3ccc(Cl)cc3)C2)ccn1 (stereo not shown) [Example 108, 4-{[3-(4-Chlorophenyl)azepan-1-yl]carbonyl}-N,N-dimethylpyridin-2-amine]
6.02 | COc1ccc(C2CCCCN(C(=O)c3ccnc(N(C)C)c3)C2)cc1 (stereo not shown) [Example 109, 4-{[3-(4-Methoxyphenyl)azepan-1-yl]carbonyl}-N,N-dimethylpyridin-2-amine]
6.35 | CNc1cc(C(=O)N2CCCCC(c3ccc(OC)cc3)C2)ccn1 (stereo not shown) [Example 110, 4-{[3-(4-Methoxyphenyl)azepan-1-yl]carbonyl}-N-methylpyridin-2-amine]
6.37 | CNc1cc(C(=O)N2CCCCC(c3ccc(Cl)cc3)C2)ccn1 (stereo not shown) [Example 111, 4-{[3-(4-Chlorophenyl)azepan-1-yl]carbonyl}-N-methylpyridin-2-amine]
